The text below walks through data of patent US20230416232A1, “PYRIMIDINE COMPOUNDS, COMPOSITIONS, AND MEDICINAL APPLICATIONS THEREOF” (Blueprint Medicines Corporation, priority 2020, published 2023).

Format in all cases: cell-based
In experiment [1] the target is EGFR(D770_N771insSVD) expressing Ba/F3 stable cell line (Homo sapiens, UniProt P00533, DUP768-770, cells depend on it). Kind of experiment: Cellular proliferation (Alamar Blue) assay, EGFR(D770_N771insSVD) Ba/F3. Particulars: 72 hr, read-out: D770 IC50. As to the method:
(§1) Cell line details: • 1. EGFR(D770_N771insSVD) expressing Ba/F3 stable cell line • 2. EGFR (A767_dupASV) expressing Ba/F3 stable cell line • 3. A431 cells • 4. EGFR (H773insNPH) expressing Ba/F3 stable cell line • 5. HER2 (A775_G776insYVMA) expressing Ba/F3 stable cell line
(§2) • 1. Seed cells at 5000 for A431 and 15,000 cells for Ba/F3 in 100 μL/well in complete media (for A431: DMEM with 10% FBS and for Ba/F3 cells: RPMI with 10% FBS) in 96-well tissue culture plate. Leave outer wells without cells for background measurements. Incubate at 37 degree Celsius in 5% CO2 humidified incubator for 16-18 hours. • 2. Add 0.025 ml of 5X concentration compound dilution or DMSO control. Final compound concentration range is 10-0.0005 μM prepared in 3-fold serial dilutions. Incubate for 72 hr at 37 degree Celsius in 5% CO2 humidified incubator. • 3. Add 0.0125 ml Alamar Blue™ reagent to each well with multi-channel pipette and tap gently on each side of the plate to mix. Incubate for 3 hours at 37 degree Celsius in 5% CO2 humidified incubator. • 4. […] Data analysis was performed using XLfit 5.5.0.5.
(In general: The colour change of resazurin is a common sign of viable cells or microbes.)

In experiment [2] the target is EGFR (A767_dupASV) expressing Ba/F3 stable cell line (Homo sapiens, UniProt P00533, DUP767-769, cells depend on it). Kind of experiment: Cellular proliferation (Alamar Blue) assay, EGFR (A767_dupASV) Ba/F3. Conditions: 72 hr, read-out: A767 IC50. As to the method:
as §1, §2

Another experiment deals with A431 cells. Kind of experiment: Cellular proliferation (Alamar Blue) assay, A431 cells. Particulars: Homo sapiens, A-431, 72 h, A431 cells; 72 hr; Alamar Blue; read-out: A431 IC50. As to the method:
as §2

Experiment [3] deals with HER2 (A775_G776insYVMA) expressing Ba/F3 stable cell line (Homo sapiens, UniProt P04626, DUP772-775, cells depend on it). Kind of experiment: Cellular proliferation (Alamar Blue) assay, HER2 (A775_G776insYVMA) Ba/F3. Particulars: HER2 (A775_G776insYVMA) Ba/F3 cells; 72 hr; Alamar Blue; read-out: YVMA IC50. As to the method:
as §1, §2

Where only a bound is given, the exact number is not on record here.

EGFR (A767_dupASV) expressing Ba/F3 stable cell line, sequence (P00533 with tags, fused parts or gaps DUP767-769): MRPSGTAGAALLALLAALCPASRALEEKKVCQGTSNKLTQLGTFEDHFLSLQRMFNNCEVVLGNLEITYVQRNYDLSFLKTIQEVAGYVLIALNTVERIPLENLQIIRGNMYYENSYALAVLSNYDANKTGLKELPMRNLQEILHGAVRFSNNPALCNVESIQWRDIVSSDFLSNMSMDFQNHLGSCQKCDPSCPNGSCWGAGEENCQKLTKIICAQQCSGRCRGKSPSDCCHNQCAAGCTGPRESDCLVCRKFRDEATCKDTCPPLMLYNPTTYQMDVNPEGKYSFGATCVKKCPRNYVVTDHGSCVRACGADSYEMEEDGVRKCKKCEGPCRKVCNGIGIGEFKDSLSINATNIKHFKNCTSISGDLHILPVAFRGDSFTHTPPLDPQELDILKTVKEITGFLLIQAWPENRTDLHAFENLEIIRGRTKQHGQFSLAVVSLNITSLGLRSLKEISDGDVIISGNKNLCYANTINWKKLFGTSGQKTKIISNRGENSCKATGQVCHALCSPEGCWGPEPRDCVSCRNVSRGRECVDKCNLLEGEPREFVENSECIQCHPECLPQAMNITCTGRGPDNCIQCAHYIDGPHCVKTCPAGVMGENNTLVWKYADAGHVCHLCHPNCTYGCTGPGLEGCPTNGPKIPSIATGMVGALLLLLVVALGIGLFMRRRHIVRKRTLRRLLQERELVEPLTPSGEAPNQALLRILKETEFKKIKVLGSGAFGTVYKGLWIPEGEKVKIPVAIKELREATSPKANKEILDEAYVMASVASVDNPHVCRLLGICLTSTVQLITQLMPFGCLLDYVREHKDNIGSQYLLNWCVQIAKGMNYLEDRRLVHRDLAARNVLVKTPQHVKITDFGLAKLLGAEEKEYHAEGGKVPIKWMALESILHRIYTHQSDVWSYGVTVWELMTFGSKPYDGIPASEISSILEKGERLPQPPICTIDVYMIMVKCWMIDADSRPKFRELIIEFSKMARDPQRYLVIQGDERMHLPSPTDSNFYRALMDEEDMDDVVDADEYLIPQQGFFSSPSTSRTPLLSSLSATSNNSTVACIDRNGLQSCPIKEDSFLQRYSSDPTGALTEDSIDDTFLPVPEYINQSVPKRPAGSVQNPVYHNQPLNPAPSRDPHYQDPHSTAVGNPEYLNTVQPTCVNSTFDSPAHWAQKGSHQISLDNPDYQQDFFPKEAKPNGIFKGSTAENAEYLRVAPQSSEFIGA
HER2 (A775_G776insYVMA) expressing Ba/F3 stable cell line, sequence (P04626 with tags, fused parts or gaps DUP772-775): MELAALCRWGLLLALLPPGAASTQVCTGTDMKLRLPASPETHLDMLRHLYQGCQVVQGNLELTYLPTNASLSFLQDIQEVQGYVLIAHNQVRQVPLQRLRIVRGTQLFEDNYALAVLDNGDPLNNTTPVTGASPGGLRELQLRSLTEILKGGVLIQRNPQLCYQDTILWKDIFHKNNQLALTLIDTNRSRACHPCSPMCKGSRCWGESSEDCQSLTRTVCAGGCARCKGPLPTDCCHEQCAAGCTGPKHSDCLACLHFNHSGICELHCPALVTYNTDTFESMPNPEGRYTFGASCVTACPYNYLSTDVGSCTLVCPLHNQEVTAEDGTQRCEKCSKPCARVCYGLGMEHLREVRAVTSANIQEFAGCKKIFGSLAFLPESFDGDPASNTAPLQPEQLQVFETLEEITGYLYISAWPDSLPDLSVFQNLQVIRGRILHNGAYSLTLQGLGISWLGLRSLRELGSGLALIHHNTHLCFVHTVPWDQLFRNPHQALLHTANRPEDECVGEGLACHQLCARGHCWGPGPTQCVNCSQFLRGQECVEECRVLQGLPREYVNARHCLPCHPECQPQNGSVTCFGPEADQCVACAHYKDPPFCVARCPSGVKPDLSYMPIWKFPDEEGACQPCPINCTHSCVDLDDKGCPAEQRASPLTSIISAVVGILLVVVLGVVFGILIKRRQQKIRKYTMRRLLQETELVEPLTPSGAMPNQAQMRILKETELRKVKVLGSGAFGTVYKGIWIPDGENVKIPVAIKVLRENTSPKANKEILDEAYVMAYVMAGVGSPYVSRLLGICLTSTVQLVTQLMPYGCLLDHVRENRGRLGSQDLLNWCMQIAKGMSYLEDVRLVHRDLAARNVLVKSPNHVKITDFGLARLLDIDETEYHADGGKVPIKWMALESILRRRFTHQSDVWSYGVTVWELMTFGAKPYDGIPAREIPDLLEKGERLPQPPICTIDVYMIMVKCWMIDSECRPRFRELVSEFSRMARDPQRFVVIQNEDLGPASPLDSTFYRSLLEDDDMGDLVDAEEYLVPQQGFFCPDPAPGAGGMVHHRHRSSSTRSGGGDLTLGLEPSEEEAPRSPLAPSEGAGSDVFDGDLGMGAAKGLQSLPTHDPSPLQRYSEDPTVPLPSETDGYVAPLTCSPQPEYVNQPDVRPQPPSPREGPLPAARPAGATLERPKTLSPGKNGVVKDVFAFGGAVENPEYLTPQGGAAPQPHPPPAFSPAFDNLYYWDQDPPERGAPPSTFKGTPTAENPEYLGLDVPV
EGFR(D770_N771insSVD) expressing Ba/F3 stable cell line, sequence (P00533 with tags, fused parts or gaps DUP768-770): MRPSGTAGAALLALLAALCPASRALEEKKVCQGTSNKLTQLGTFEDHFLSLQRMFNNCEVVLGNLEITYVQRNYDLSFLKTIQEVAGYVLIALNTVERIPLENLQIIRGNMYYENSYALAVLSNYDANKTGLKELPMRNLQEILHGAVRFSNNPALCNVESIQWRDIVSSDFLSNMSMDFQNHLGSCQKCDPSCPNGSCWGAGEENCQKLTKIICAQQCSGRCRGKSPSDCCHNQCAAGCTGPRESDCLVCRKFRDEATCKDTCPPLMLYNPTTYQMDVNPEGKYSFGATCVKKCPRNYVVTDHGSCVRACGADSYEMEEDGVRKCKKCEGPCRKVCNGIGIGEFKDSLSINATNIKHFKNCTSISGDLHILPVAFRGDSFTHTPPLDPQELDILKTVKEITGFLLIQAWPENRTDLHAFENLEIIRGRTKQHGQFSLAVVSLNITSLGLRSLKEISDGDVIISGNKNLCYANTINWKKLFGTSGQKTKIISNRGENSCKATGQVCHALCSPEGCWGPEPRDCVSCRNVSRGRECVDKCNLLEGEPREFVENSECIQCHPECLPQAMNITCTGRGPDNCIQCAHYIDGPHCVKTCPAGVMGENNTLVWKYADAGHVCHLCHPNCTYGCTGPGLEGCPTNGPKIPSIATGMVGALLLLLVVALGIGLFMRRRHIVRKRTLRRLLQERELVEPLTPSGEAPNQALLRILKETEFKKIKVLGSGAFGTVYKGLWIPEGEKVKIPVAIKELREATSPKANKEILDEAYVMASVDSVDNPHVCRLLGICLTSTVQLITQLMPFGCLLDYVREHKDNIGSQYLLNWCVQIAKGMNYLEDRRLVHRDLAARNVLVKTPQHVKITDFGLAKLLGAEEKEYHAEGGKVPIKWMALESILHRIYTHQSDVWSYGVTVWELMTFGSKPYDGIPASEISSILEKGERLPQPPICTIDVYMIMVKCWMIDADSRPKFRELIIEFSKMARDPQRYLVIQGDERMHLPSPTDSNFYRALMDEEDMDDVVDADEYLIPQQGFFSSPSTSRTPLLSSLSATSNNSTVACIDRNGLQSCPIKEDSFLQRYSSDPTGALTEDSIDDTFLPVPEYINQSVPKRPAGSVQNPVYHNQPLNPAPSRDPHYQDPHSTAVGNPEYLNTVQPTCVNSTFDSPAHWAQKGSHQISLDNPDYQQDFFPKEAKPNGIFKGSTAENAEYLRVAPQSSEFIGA

In the case of `Cn1cc(Nc2ncc(-c3ccc(Br)c(F)c3)c(Nc3cc(NC(=O)/C=C/CF)ccc3F)n2)cn1` [Compound 175, (E)-N-(3-((5-(4-bromo-3-fluorophenyl)-2-((1-methyl-1H-pyrazol-4-yl)amino)pyrimidin-4-yl)amino)-4-fluorophenyl)-4-fluorobut-2-enamide], the GI50 came to 136 nM in experiment [1], 224 nM in experiment [2] and 1620 nM in experiment [3]. The IC50 – broadly, the point on the concentration scale where inhibition reaches its midpoint – in the experiment with A431 cells was 347 nM.

Regarding `C=CC(=O)Nc1ccc(F)c(Nc2nc(Nc3cnn(C)c3)ncc2-c2cc(F)ccc2OC)c1` [Compound 9, N-(4-fluoro-3-((5-(5-fluoro-2-methoxyphenyl)-2-((1-methyl-1H-pyrazol-4-yl)amino)pyrimidin-4-yl)amino)phenyl)acrylamide], the GI50 turned out to be 930 nM in experiment [1], 721 nM in experiment [2] and 838 nM in experiment [3]. Besides, in the experiment on A431 cells, the 50% inhibitory concentration (IC50) is greater than 10000 nM.

For `C=CC(=O)Nc1ccc(F)c(Nc2nc(Nc3cnn(C)c3)ncc2-c2cc(F)c(F)c(F)c2)c1` [Compound 149, N-(4-fluoro-3-((2-((1-methyl-1H-pyrazol-4-yl)amino)-5-(3,4,5-trifluorophenyl)pyrimidin-4-yl)amino)phenyl)acrylamide], the GI50 worked out at 11 nM in experiment [1], 34 nM in experiment [2] and 92 nM in experiment [3]. The IC50 in the experiment with A431 cells stood at 11 nM.

In the case of `C=CC(=O)Nc1cc(Br)cc(Nc2nc(Nc3cnn(C)c3)ncc2-c2ccc(OC(F)F)c(F)c2)c1` [Compound 132, N-(3-bromo-5-((5-(4-(difluoromethoxy)-3-fluorophenyl)-2-((1-methyl-1H-pyrazol-4-yl)amino)pyrimidin-4-yl)amino)phenyl)acrylamide], the figures for the GI50 in experiment [1], in experiment [2] and in experiment [3] were 34 nM, 40 nM and 345 nM, respectively. Moreover, the IC50 with A431 cells was found to be 51 nM.

Consider `C=CC(=O)Nc1ccc(F)c(Nc2nc(Nc3cnn(C)c3)ncc2-c2cc(C(F)(F)F)ccc2F)c1` [Compound 24, N-(4-fluoro-3-((5-(2-fluoro-5-(trifluoromethyl)phenyl)-2-((1-methyl-1H-pyrazol-4-yl)amino)pyrimidin-4-yl)amino)phenyl)acrylamide], for which the figures for the GI50 in experiment [1], in experiment [2] and in experiment [3] were 300 nM, 321 nM and 588 nM, respectively. Also, in the experiment on A431 cells, the half-inhibitory concentration (IC50) was 9420 nM.

`C=CC(=O)Nc1ccc(F)c(Nc2nc(Nc3cnn(CCOC)c3)ncc2-c2ccc(Br)c(F)c2)c1` [Compound 95, N-(3-((5-(4-bromo-3-fluorophenyl)-2-((1-(2-methoxyethyl)-1H-pyrazol-4-yl)amino)pyrimidin-4-yl)amino)-4-fluorophenyl)acrylamide]: the GI50 in experiment [1] came out at 29 nM; in experiment [2], 43 nM; in experiment [3], 197 nM. For the same compound, in the experiment on A431 cells, the IC50 stood at 4770 nM.

With `C=CC(=O)Nc1ccc(F)c(Nc2nc(Nc3cnn(C)c3)ncc2-c2ccc3c(c2)OCC3)c1` [Compound 162, N-(3-((5-(2,3-dihydrobenzofuran-6-yl)-2-((1-methyl-1H-pyrazol-4-yl)amino)pyrimidin-4-yl)amino)-4-fluorophenyl)acrylamide], the values for the GI50 in experiment [1], in experiment [2] and in experiment [3] were 38 nM, 116 nM and 428 nM, respectively. The IC50 in the experiment on A431 cells is 84 nM.

Consider `C=CC(=O)Nc1ccc(F)c(Nc2nc(Nc3cnn(C)c3)ncc2-c2cc(F)c(F)c(C(F)F)c2)c1` [Compound 141, N-(3-((5-(3-(difluoromethyl)-4,5-difluorophenyl)-2-((1-methyl-1H-pyrazol-4-yl)amino)pyrimidin-4-yl)amino)-4-fluorophenyl)acrylamide], for which the values for the GI50 in experiment [1], in experiment [2] and in experiment [3] were 16 nM, 25 nM and 167 nM, respectively. Moreover, the IC50 in the experiment on A431 cells was 13 nM.

For the compound `[2H]C([2H])([2H])Oc1cc(F)cc(-c2cnc(Nc3cnn(C)c3)nc2Nc2cc(NC(=O)C=C)ccc2F)c1` [Compound 165, N-(4-fluoro-3-((5-(3-fluoro-5-(methoxy-d3)phenyl)-2-((1-methyl-1H-pyrazol-4-yl)amino)pyrimidin-4-yl)amino)phenyl)acrylamide], the GI50 turned out to be 70 nM in experiment [1], 110 nM in experiment [2] and 208 nM in experiment [3]. Further, the half-maximal inhibitory concentration (IC50) in the experiment with A431 cells turned out to be 387 nM.

On to `C=CC(=O)Nc1ccc(F)c(Nc2nc(Nc3cnn(C)c3)ncc2-c2cc(F)c(Cl)c(F)c2)c1` [Compound 158, N-(3-((5-(4-chloro-3,5-difluorophenyl)-2-((1-methyl-1H-pyrazol-4-yl)amino)pyrimidin-4-yl)amino)-4-fluorophenyl)acrylamide], for which the results for the GI50 in experiment [1], in experiment [2] and in experiment [3] were 11 nM, 15 nM and 40 nM, respectively. Besides, the IC50 in the experiment with A431 cells stood at 10 nM.

Regarding `C=CC(=O)Nc1cc(F)cc(Nc2nc(Nc3cnn(C)c3)ncc2-c2ccc(Br)c(F)c2)c1` [Compound 97, N-(3-((5-(4-bromo-3-fluorophenyl)-2-((1-methyl-1H-pyrazol-4-yl)amino)pyrimidin-4-yl)amino)-5-fluorophenyl)acrylamide], the figures for the GI50 in experiment [1], in experiment [2] and in experiment [3] were 13 nM, 24 nM and 62 nM, respectively. Moreover, the IC50 in the experiment on A431 cells came out at 12 nM.

On to `C=CC(=O)Nc1ccc(F)c(Nc2nc(Nc3cnn(C)c3)ncc2-c2cc(F)c(Br)c(F)c2)c1` [Compound 91, N-(3-((5-(4-bromo-3,5-difluorophenyl)-2-((1-methyl-1H-pyrazol-4-yl)amino)pyrimidin-4-yl)amino)-4-fluorophenyl)acrylamide], for which the results for the GI50 in experiment [1], in experiment [2] and in experiment [3] were 15 nM, 31 nM and 59 nM, respectively. For the same compound, the half-inhibitory concentration (IC50) in the experiment with A431 cells was found to be 11 nM.

`C=CC(=O)Nc1ccc(F)c(Nc2nc(Nc3cn(C)nc3Cl)ncc2-c2cc(F)cc(C(F)F)c2)c1` [Compound 108, N-(3-((2-((3-chloro-1-methyl-1H-pyrazol-4-yl)amino)-5-(3-(difluoromethyl)-5-fluorophenyl)pyrimidin-4-yl)amino)-4-fluorophenyl)acrylamide]: the GI50 in experiment [1] was determined as 39 nM; in experiment [2], 96 nM; in experiment [3], 243 nM. Besides, the half-inhibitory concentration (IC50) in the experiment with A431 cells is 23 nM.

For `C=CC(=O)Nc1ccc(F)c(Nc2nc(Nc3cnn(C4CCOC4)c3)ncc2-c2ccc(Br)c(F)c2)c1` (stereo not drawn) [Compound 93, N-(3-((5-(4-bromo-3-fluorophenyl)-2-((1-(tetrahydrofuran-3-yl)-1H-pyrazol-4-yl)amino)pyrimidin-4-yl)amino)-4-fluorophenyl)acrylamide], the GI50 amounted to 35 nM in experiment [1], 46 nM in experiment [2] and 173 nM in experiment [3]. Also, the IC50 in the experiment on A431 cells was found to be 33 nM.

`C=CC(=O)Nc1cc(F)cc(Nc2nc(Nc3cnn(C)c3)ncc2-c2cc(F)c(C(F)(F)F)c(F)c2)c1` [Compound 164, N-(3-((5-(3,5-difluoro-4-(trifluoromethyl)phenyl)-2-((1-methyl-1H-pyrazol-4-yl)amino)pyrimidin-4-yl)amino)-5-fluorophenyl)acrylamide]: the GI50 was found to be 22 nM in experiment [1], 18 nM in experiment [2] and 157 nM in experiment [3]. Further, the IC50 with A431 cells came to 103 nM.

As for `C=CC(=O)Nc1ccc(F)c(Nc2nc(Nc3cnn(CCN(C)C)c3)ncc2-c2ccc(N3CCCCC3)c(F)c2)c1` [Compound 82, N-(3-((2-((1-(2-(dimethylamino)ethyl)-1H-pyrazol-4-yl)amino)-5-(3-fluoro-4-(piperidin-1-yl)phenyl)pyrimidin-4-yl)amino)-4-fluorophenyl)acrylamide], the GI50 in experiment [1] was determined as 313 nM; in experiment [2], 239 nM; in experiment [3], 149 nM. In the experiment with A431 cells, the IC50 was 397 nM.

`C=CC(=O)Nc1cc(Br)cc(Nc2nc(Nc3cnn(C)c3)ncc2-c2cc(F)cc(C(F)F)c2)c1` [Compound 174, N-(3-bromo-5-((5-(3-(difluoromethyl)-5-fluorophenyl)-2-((1-methyl-1H-pyrazol-4-yl)amino)pyrimidin-4-yl)amino)phenyl)acrylamide]: the results for the GI50 in experiment [1], in experiment [2] and in experiment [3] were 42 nM, 120 nM and 759 nM, respectively. In addition, the concentration for half-maximal inhibition (IC50) with A431 cells was determined as 358 nM.

In the case of `CN(C)C/C=C/C(=O)Nc1ccc(F)c(Nc2nc(Nc3cnn(C)c3)ncc2-c2ccc(Br)c(F)c2)c1` [Compound 105, (E)-N-(3-((5-(4-bromo-3-fluorophenyl)-2-((1-methyl-1H-pyrazol-4-yl)amino)pyrimidin-4-yl)amino)-4-fluorophenyl)-4-(dimethylamino)but-2-enamide], the GI50 in experiment [1] came to 129 nM; in experiment [2] it was 663 nM; in experiment [3], 125 nM. In addition, in the experiment on A431 cells, the IC50 came to 85 nM.
